Results from PubChem BioAssay (NCI).
Where “and” joins values, the source holds several entries; their conditions need not be identical. Equal values may be shown once.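 The compound was tested at five concentrations on cells cultured in 96-well plates, with a 48-hour exposure period. At the GI50, growth is halved. The concentration for full growth arrest is given as TGI.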

Assays:
Assay in all cases: DTP human tumour cell line panel, 48 h; in the data active = GI50 below about 0.43 µM; inactive = the rest
A549 NSCLC = test system: A549 NSCLC
SK-MEL-5 melanoma = test system: SK-MEL-5 melanoma
MDA-MB-435 = test system: MDA-MB-435
SF-295 CNS = test system: SF-295 CNS
BT-549 breast = test system: BT-549 breast
SF-539 CNS = test system: SF-539 CNS
A498 renal = test system: A498 renal
SK-OV-3 ovarian = test system: SK-OV-3 ovarian
HOP-92 NSCLC = test system: HOP-92 NSCLC
NCI-H23 lung = test system: NCI-H23 lung
CAKI-1 renal = test system: CAKI-1 renal
HOP-62 NSCLC = test system: HOP-62 NSCLC
MCF7 breast = test system: MCF7 breast
HL-60(TB) leukemia = test system: HL-60(TB) leukemia
SN12C renal = test system: SN12C renal
MALME-3M melanoma = test system: MALME-3M melanoma
RPMI-8226 leukemia = test system: RPMI-8226 leukemia
CCRF-CEM leukemia = test system: CCRF-CEM leukemia
OVCAR-4 ovarian = test system: OVCAR-4 ovarian
SF-268 CNS = test system: SF-268 CNS
HCC-2998 colon = test system: HCC-2998 colon
IGROV1 ovarian = test system: IGROV1 ovarian
RXF 393 renal = test system: RXF 393 renal
NCI-H226 lung = test system: NCI-H226 lung
MDA-MB-231 breast = test system: MDA-MB-231 breast
T-47D breast = test system: T-47D breast
NCI/ADR-RES ovarian = test system: NCI/ADR-RES ovarian
OVCAR-3 ovarian = test system: OVCAR-3 ovarian
OVCAR-5 ovarian = test system: OVCAR-5 ovarian
TK-10 renal = test system: TK-10 renal
NCI-H522 lung = test system: NCI-H522 lung
786-0 renal = test system: 786-0 renal
UACC-62 melanoma = test system: UACC-62 melanoma
OVCAR-8 ovarian = test system: OVCAR-8 ovarian
MOLT-4 leukemia = test system: MOLT-4 leukemia
K-562 leukemia = test system: K-562 leukemia
SR leukemia = test system: SR leukemia
PC-3 prostate = test system: PC-3 prostate
HT29 colon = test system: HT29 colon
SNB-75 CNS = test system: SNB-75 CNS
EKVX NSCLC = test system: EKVX NSCLC
LOX IMVI melanoma = test system: LOX IMVI melanoma
HCT-15 colon = test system: HCT-15 colon
DU-145 prostate = test system: DU-145 prostate
SW-620 colon = test system: SW-620 colon
UACC-257 melanoma = test system: UACC-257 melanoma
HS 578T breast = test system: HS 578T breast
UO-31 renal = test system: UO-31 renal
SK-MEL-2 melanoma = test system: SK-MEL-2 melanoma
HCT-116 colon = test system: HCT-116 colon
NCI-H460 lung = test system: NCI-H460 lung
SNB-19 CNS = test system: SNB-19 CNS
SK-MEL-28 melanoma = test system: SK-MEL-28 melanoma
COLO 205 colon = test system: COLO 205 colon
U251 CNS = test system: U251 CNS
MDA-N = test system: MDA-N
M14 melanoma = test system: M14 melanoma
DMS 114 small cell lung = test system: DMS 114 small cell lung
DMS 273 small cell lung = test system: DMS 273 small cell lung
ACHN renal = test system: ACHN renal

Cc1nnc2cc(C(=O)O)c3ccccc3n2c1=O
> 10000 nM: TGI (A549 NSCLC) | TGI (SK-MEL-5 melanoma) | TGI (MDA-MB-435) | TGI (SF-295 CNS) | TGI (BT-549 breast) | TGI (SF-539 CNS) | TGI (A498 renal) | TGI (SK-OV-3 ovarian) | TGI (HOP-92 NSCLC) | TGI (NCI-H23 lung) | TGI (CAKI-1 renal) | TGI (HOP-62 NSCLC) | TGI (MCF7 breast) | TGI (HL-60(TB) leukemia) | TGI (SN12C renal) | TGI (MALME-3M melanoma) | TGI (RPMI-8226 leukemia) | TGI (CCRF-CEM leukemia) | TGI (OVCAR-4 ovarian) | TGI (SF-268 CNS) | TGI (HCC-2998 colon) | TGI (IGROV1 ovarian) | TGI (RXF 393 renal) | TGI (NCI-H226 lung) | TGI (MDA-MB-231 breast) | TGI (T-47D breast) | TGI (NCI/ADR-RES ovarian) | TGI (OVCAR-3 ovarian) | TGI (OVCAR-5 ovarian) | TGI (TK-10 renal) | TGI (NCI-H522 lung) | TGI (786-0 renal) | TGI (UACC-62 melanoma) | TGI (OVCAR-8 ovarian) | TGI (MOLT-4 leukemia) | TGI (K-562 leukemia) | TGI (SR leukemia) | TGI (PC-3 prostate) | TGI (HT29 colon) | TGI (SNB-75 CNS) | TGI (EKVX NSCLC) | TGI (LOX IMVI melanoma) | TGI (HCT-15 colon) | TGI (DU-145 prostate) | TGI (SW-620 colon) | TGI (UACC-257 melanoma) | TGI (HS 578T breast) | TGI (UO-31 renal) | TGI (SK-MEL-2 melanoma) | TGI (HCT-116 colon) | TGI (NCI-H460 lung) | TGI (SNB-19 CNS) | TGI (SK-MEL-28 melanoma) | TGI (COLO 205 colon) | TGI (U251 CNS) | TGI (MDA-N) | TGI (M14 melanoma)

NC(=O)c1cn(C2OC(CO)C(O)C2O)c2ncnc(N)c12 (centres undefined)
38.9 nM: TGI (BT-549 breast)
118 nM [middle of 4 runs]: TGI (DMS 273 small cell lung)
52.3 nM: TGI (T-47D breast)
148 nM and 75.9 nM: TGI (CCRF-CEM leukemia)
68.4 nM: TGI (786-0 renal)
5.74 nM: TGI (PC-3 prostate)
48.7 nM: TGI (DU-145 prostate)
75.8 nM: TGI (HS 578T breast)
active: GI50 (MCF7 breast) 20.7 nM | GI50 (CCRF-CEM leukemia) 5.59 nM and 24.6 nM and 6.27 nM | GI50 (NCI-H522 lung) 48.2 nM and 21 nM | GI50 (DMS 273 small cell lung) 87.5 nM and 70 nM | GI50 (SR leukemia) 12.8 nM
383 nM and 904 nM and 92.1 nM: TGI (OVCAR-8 ovarian)
94.6 nM: TGI (SR leukemia)
103 nM: TGI (ACHN renal)
205 nM and 326 nM: TGI (DMS 114 small cell lung)
70.7 nM: TGI (TK-10 renal)
36 nM: TGI (MDA-MB-435)
206 nM and 70.1 nM: TGI (NCI-H522 lung)
216 nM [middle of 4 runs]: TGI (HCC-2998 colon)
102 nM: TGI (MDA-MB-231 breast)
